Measurements published in patent US20230192799A1, “CNP Variants and Conjugates Thereof” (BIOMARIN PHARMACEUTICAL INC., priority 2019, published 2023).
Numbered stars: 1 amine (or outer) side, 2 acyl side, 3 side chain; on linkers, the order of the positions; unused ones are H or OH. Bridge positions count the residues as written; N and C are the ends. Side chains are listed from the residue outwards. Peptide text beside a SMILES is read from it. * marks the point of attachment. ξ: configuration not given here. C18 diacid = O=C(O)CCCCCCCCCCCCCCCCC(=O)*; ξγGlu = O=C(O)C(CCC(=O)[*:2])N[*:1]; AEEA = NCCOCCOCC(=O)O

What was measured:
[1] = Stability of CNP variants by RP-HPLC, 10 days in PBS; type: physicochemical; conditions: for T0, % (% variant detected at T0): T0 (0 days); for T10, % (% variant detected at T10): T10 (10 days) in PBS, pH 7.4, at 37° C.
[2] = Stability of CNP variants or conjugates in human plasma (LC-MS/MS); type: in vitro ADME
Experimental: Stability of different CNP variants or CNP conjugates were tested for stability in human plasma over a 24 hour period. Briefly, a C18 fatty acid was fused to gamma glutamic acid using 2 OEG spacers (see e.g., Lau et al., J. Med. Chem 58:7370-7380, 2015). For the chromatography, Waters UPLC H-Class connected with BEH C18 1.7 um, 2.1×150 mm; Mobile Phase A: 1% DMSO 0.1% Formic Acid in Water; Mobile Phase B: 1% DMSO 0.1% Formic Acid in CAN. Mass Spectrometry was carried out using an AB Sciex QTRAP.
each CNP variant was prepared at 200 nM in Human Plasma Li Heparin and samples Incubated at 37° C. 5% CO2. The reaction was quenched at 0, 1, 2, 4, 8, 24 hours with 0.5M Sodium Citrate pH 4. Plasma proteins were precipitated with 0.2% Formic Acid in MeOH and samples prepared using WCX 96-well uElution plate and analyzed by LC-MS/MS 6500.
Stability of different conjugates was also analyzed at varying conditions. Briefly, the same protocol as above was used at 37° C. (control), 37° C.+0.5M NaCl, 37° C.+protease inhibitors or 4° C.

[3] = test system: NPR2+/− rat chondrosarcoma cell model (heterozygous NPR2 knockout cells); assay: cGMP stimulation assay in NPR2 mutant RCS cells; type: cell-based
Experimental: To determine the effects of CNP on subjects with short stature resulting from NPR2 mutations, cellular models of NPR2 mutations were developed. […] Rat chondrosarcoma (RCS) cells having either a knockout of, or heterozygous loss of function mutations in, the NPR2 gene were made by RNP transfection into RCS cells using 125 ng NPR2 variants or wild-type NPR2 plasmid DNA transfected into RCS or HEK293 cells. Single cell clones were seeded and genotyped by Sanger sequencing.
The NPR2 clones were created by creating insertions and deletions in the first exon of NPR2 in RCS cells. […] NPR2 mutant cells were tested for activity in response to CNP administration by a cGMP stimulation assay using a Catch Point Cyclic-GMP Fluorescent Assay after treatment with 6 nM of Pro-Gly CNP37. RCS (rat chondrosarcoma) cells were seeded at 40,000 cells/well in RCS culture media: DMEM+10% FBS+1× Pen Strep.

[4] = test system: cGMP production in NIH3T3 cells and HEK293 cells; assay: cGMP stimulation assay (CatchPoint Cyclic-GMP Fluorescent Assay); type: cell-based; conditions: peptide at T0, 7-point dose curve 100 nM to 0.0064 nM
[5] = test system: mice deficient in Nf1 in type II collagen producing cells; conditions: daily injections; cited from earlier work
[6] = test system: mouse model of Cardiofaciocutaneous syndrome using a Braf mutation (p.Q241R); conditions: in vivo; cited from earlier work

CC[C@H](C)[C@@H]1NC(=O)[C@H](CCCNC(=N)N)NC(=O)[C@H](CC(=O)O)NC(=O)[C@H](CC(C)C)NC(=O)[C@H](CCCCN)NC(=O)[C@H](CC(C)C)NC(=O)CNC(=O)[C@H](Cc2ccccc2)NC(=O)[C@@H](NC(=O)CNC(=O)[C@H](CCCCN)NC(=O)[C@H](CO)NC(=O)[C@H](CC(C)C)NC(=O)CNC(=O)[C@H](CCCCN)NC(=O)[C@H](CCCCN)NC(=O)[C@H](CC(N)=O)NC(=O)[C@H](C)NC(=O)CNC(=O)[C@H](CCCCN)NC(=O)[C@H](Cc2ccc(O)cc2)NC(=O)[C@H](CCCCN)NC(=O)[C@H](CCCNC(=N)N)NC(=O)[C@H](C)NC(=O)[C@H](CC(N)=O)NC(=O)[C@@H]2CCCN2C(=O)[C@H](Cc2c[nH]cn2)NC(=O)[C@H](CCC(=O)O)NC(=O)[C@H](CCC(N)=O)NC(=O)CNC(=O)[C@@H]2CCCN2)CSSC[C@@H](C(=O)O)NC(=O)CNC(=O)[C@H](CC(C)C)NC(=O)CNC(=O)[C@H](CO)NC(=O)[C@H](CCSC)NC(=O)[C@H](CO)NC(=O)CNC1=O [Pro-Gly CNP37]
T0, % (% variant detected at T0) [1]: 76.7%
T10, % (% variant detected at T10) [1]: 39.5%
stability in human plasma at varying conditions ([2]; 37° C. (control), 37° C.+0.5M NaCl, 37° C.+protease inhibitors or 4° C. (FIG. 3)): greater stability compared to other variants
proteolysis in human plasma ([2]; human plasma, varying conditions (FIG. 3)): prone to proteolysis
cGMP readout ([3]; NPR2+/− rat chondrosarcoma cells, 6 nM of peptide (FIG. 4)): rescues cGMP readout
EC50 [4]: 1.7 nM

PGQEHPNARKYKGANKKGLSKGCFGLKLDRIGSMSGLGC [CNP-5]
T0, % (% variant detected at T0) [1]: 83%
T10, % (% variant detected at T10) [1]: 47%

PGQEHPNARRYRGANRRGLSRGCFGLKLDRIGSMSGLGC [CNP-6]
T0, % (% variant detected at T0) [1]: 90%
T10, % (% variant detected at T10) [1]: 58%

PGQEHPQARRYRGAQRRGLSRGCFGLKLDRIGSMSGLGC [CNP-9]
T0, % (% variant detected at T0) [1]: 92%
T10, % (% variant detected at T10) [1]: 77%

PGQEHPQARRYRGAQRRGLSRGCFGLKLDRIGSMSGLGC [CNP-8]
T0, % (% variant detected at T0) [1]: 91%
T10, % (% variant detected at T10) [1]: 88%

PGQEHPNARRYRGANRRGLSRGCFGLKLDRIGSMSGLGC [CNP-7]
T0, % (% variant detected at T0) [1]: 77%
T10, % (% variant detected at T10) [1]: 53%

C-type natriuretic peptide [CNP]
ERK phosphorylation [5]: decreased ERK phosphorylation
short stature [5]: corrected the short stature
rescue of NPR2 signaling ([3]; cell model of NPR2 haploinsufficiency, exogenous CNP): dose-dependent rescue
body length [6]: increases in body length

CC[C@H](C)[C@@H]1NC(=O)[C@H](CCCNC(=N)N)NC(=O)[C@H](CC(=O)O)NC(=O)[C@H](CC(C)C)NC(=O)[C@H](CCCCNC(=O)COCCOCCNC(=O)COCCOCCNC(=O)CCC(NC(=O)CCCCCCCCCCCCCCCCC(=O)O)C(=O)O)NC(=O)[C@H](CC(C)C)NC(=O)CNC(=O)[C@H](Cc2ccccc2)NC(=O)[C@@H](NC(=O)CNC(=O)[C@H](CCCNC(=N)N)NC(=O)[C@H](CO)NC(=O)[C@H](CC(C)C)NC(=O)CNC(=O)[C@H](CCCNC(=N)N)NC(=O)[C@H](CCCNC(=N)N)NC(=O)[C@H](CCC(N)=O)NC(=O)[C@H](C)NC(=O)CNC(=O)[C@H](CCCNC(=N)N)NC(=O)[C@H](Cc2ccc(O)cc2)NC(=O)[C@H](CCCNC(=N)N)NC(=O)[C@H](CCCNC(=N)N)NC(=O)[C@H](C)NC(=O)[C@H](CCC(N)=O)NC(=O)[C@@H]2CCCN2C(=O)[C@H](Cc2c[nH]cn2)NC(=O)[C@H](CCC(=O)O)NC(=O)[C@H](CCC(N)=O)NC(=O)CNC(=O)[C@@H]2CCCN2C(C)=O)CSSC[C@@H](C(=O)O)NC(=O)CNC(=O)[C@H](CC(C)C)NC(=O)CNC(=O)[C@H](CO)NC(=O)[C@H](CCSC)NC(=O)[C@H](CO)NC(=O)CNC1=O (stereo partly drawn) [lipidated conjugate] (Ac-PGQEHPQARRYRGAQRRGLSRGCFGLK([AEEA-AEEA-ξγGlu-C18 diacid])LDRIGSMSGLGC-OH; disulfide 23-39)
stability in plasma ([2]; human plasma, 200 nM, 37° C., over 24 hrs (FIG. 2)): improved stability in plasma compared to PEGylated or non-conjugated peptides
